Earlier results on one compound are cited in paper PMC7835950 (Frontiers in Chemistry, 2021).

This data set deals with recombinant OGDH complex. Conditions: cited from earlier work.

`O=C(O)CCCC(=O)C(=O)O` [OA, 2-oxoadipate]: the Michaelis constant (Km) (commonly the concentration of substrate that gives half-maximal velocity) (OA as alternative substrate, ref Nemeria et al., 2017) was 520 µM. Besides, for the setting “ref Nemeria et al., 2017, 2018”, the “kcat OA of recombinant OGDH complex” value was 2.7 s⁻¹.
